Laboratory results: patent US20090215805A1, “4-Heteroaryl Pyrimidine Derivatives and use thereof as Protein Kinase Inhibitors” (Cyclacel Limited, priority 2005, published 2009)

Legend:
[1] = system: Glycogen synthase activation in mouse adipocytes (3T3-L1); assay: Glycogen synthase activation in mouse adipocytes (3T3-L1); format: cell-based; conditions: 1.5 h; 3T3-L1 mouse adipocytes, 90 minutes treatment
Experimental: 3T3-L1 mouse pre-adipocytes were grown in DMEM supplemented with 10% FCS and pen/strep until fully confluent. Cell differentiation was initiated by the addition of 0.5 mM IBMX (2-isobutyl-1-methylxanthine), 0.25 μM Dexamethasone and 1 μg/ml insulin into the growth media. The differentiation media was replaced after 4 days and 7 days after the initiation of differentiation the cells were grown for additional 3 days in DMEM, 10% FCS and pen/strep.
(§1) HEK293 cells, mouse adipocytes or rat myotubes were treated in 10 cm Petri dishes with different concentrations of GSK3 inhibitors for 90 minutes. At the end of the treatment period the cells were washed and scraped in ice cold PBS buffer supplemented with 20 mM NaF. The cells were pelleted by centrifugation and lysed in 300 μl buffer-50 mM HEPES pH 7.5, 10 mM EDTA, 100 mM NaF, 5 mM DTT, protease inhibitor cocktail (Sigma). After incubation for 30 min on ice the samples were cleared by centrifugation. The activity of glycogen synthase was determined in the soluble fraction at two different concentrations of […]-low (0.1 mM) and high (10 mM). The reaction was carried out for 30 min in a buffer—50 mM Tris pH 7.8, 20 mM EDTA, 25 mM NaF, S mM DTT. The reaction mixture (total volume of 90 μl) consisted as well of 1% glycogen, 0.3 mM UDP-glucose and 0.06 μCi ^14C-UDP-glucose. Reaction was stopped by transfer of 70 μl to a GFC 96-well filter plate, containing 140 μl 100% ethanol an the glycogen was allowed to precipitate for 1 h at 4° C. The wells were washed 2 times with 200 μl 66% ethanol and than let to dry. Subsequently, 100 μl of scintillation liquid were added, and plates were sealed and counted in a Packard Topcounter. Glycogen synthase activation was calculated as the ratio between the incorporation of labelled ^14C-UDP-glucose in glycogen at low and high concentration of […] (fractional velocity).

CDK2/E = CDK2/E (Homo sapiens, UniProt P24941); assay: CDK2/E in vitro kinase assay; format: biochemical
Experimental: (§2) The compounds of the invention above were investigated for their ability to inhibit the enzymatic activity of various protein kinases. This was achieved by measurement of incorporation of radioactive phosphate from ATP into appropriate polypeptide substrates. Recombinant protein kinases and kinase complexes were produced or obtained commercially. Assays were performed using 96-well plates and appropriate assay buffers (typically 25 mM β-glycerophosphate, 20 mM MOPS, 5 mM EGTA, 1 mM DTT, 1 mM […], pH 7.4), into which were added 2-4 μg of active enzyme with appropriate substrates. The reactions were initiated by addition of Mg/ATP mix (15 mM MgCl2+100 μM ATP with 30-50 kBq per well of [γ-^32P]-ATP) and mixtures incubated as required at 30° C. Reactions were stopped on ice, followed by filtration through p81 filterplates or GF/C filterplates (Whatman Polyfiltronics, Kent, UK). After washing 3 times with 75 mM aq orthophosphoric acid, plates were dried, scintillant added and incorporated radioactivity measured in a scintillation counter (TopCount, Packard Instruments, Pangbourne, Berks, UK). Compounds for kinase assay were made up as 10 mM stocks in DMSO and diluted into 10% DMSO in assay buffer. Data was analysed using curve-fitting software (GraphPad Prism version 3.00 for Windows, GraphPad Software, San Diego Calif. USA) to determine IC50 values (concentration of test compound which inhibits kinase activity by 50%).

GSK3 (GSK-3β) = GSK3 (GSK-3β) (Oryctolagus cuniculus, UniProt A0A5F9DUX8); assay: GSK-3 kinase assay; format: biochemical, rabbit; conditions: in vitro kinase assay
Chain of GSK3 (GSK-3β) (A0A5F9DUX8 entry or part of it): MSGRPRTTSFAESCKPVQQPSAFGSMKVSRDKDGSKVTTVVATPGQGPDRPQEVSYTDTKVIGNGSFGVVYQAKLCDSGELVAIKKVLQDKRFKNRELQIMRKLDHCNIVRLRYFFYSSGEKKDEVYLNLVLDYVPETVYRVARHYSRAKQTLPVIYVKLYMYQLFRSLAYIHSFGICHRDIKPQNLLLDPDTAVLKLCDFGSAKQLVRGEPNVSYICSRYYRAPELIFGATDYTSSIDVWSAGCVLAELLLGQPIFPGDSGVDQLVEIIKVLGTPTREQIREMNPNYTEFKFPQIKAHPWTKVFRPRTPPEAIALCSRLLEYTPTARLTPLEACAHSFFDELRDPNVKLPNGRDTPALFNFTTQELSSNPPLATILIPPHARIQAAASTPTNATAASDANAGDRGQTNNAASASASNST
Experimental: GSK-3 was obtained from New England Biolabs (UK) Ltd., Hitchin, Herts. The recombinant enzyme was isolated from a strain of E. coli that carries a clone expressing GSK-3β derived from a rabbit skeletal muscle cDNA library [Wang, Q. M.; Fiol, C. J.; DePaoli-Roach, A. A.; Roach, P. J. J. Biol. Chem., 1994, 269, 14566]. Inhibition of GSK-3 function was assessed by measurement of phosphorylation of CREB phosphopeptide KRREILSRRPphosphoSYR in the presence of test compounds. Using a 96-well assay format, GSK3 (7.5 U) was incubated for 30 min at 30° C. in a total volume of 25 μL in 20 mM MOPS pH 7.2, 25 mM β-glycerophosphate, 5 mM EGTA, 1 mM DTT, 1 mM […], 40 μM CREB peptide, 15 mM MgCl2 and 100 μM ATP (containing 0.25 μCi [γ-^32P]-ATP) in the presence of varying concentrations of test compound. The samples were transferred to 96-well p81 filter plates (Whatman Polyfiltronics, Kent, UK), and the plates were washed 4 times with 200 μL/well of 75 mM aq orthophosphoric acid. Scintillation liquid (50 μL) was added to each well, and incorporated radioactivity for each sample was determined using a scintillation counter (TopCount, Packard Instruments, Pangboume, Berks, UK).

[2] = system: Glycogen synthase activation in HEK293 cells; assay: Glycogen synthase activation in HEK293 cells; format: cell-based; conditions: Homo sapiens, 1.5 h, 90 minutes treatment
Experimental: as §1

[3] = system: PEPCK gene expression in HEPG2 cells; assay: PEPCK gene expression in HEPG2 cells - QPCR assay; format: cell-based; conditions: HEPG2, Dex/cAMP +, percentage of the dexametasone-induced stimulation
Experimental: PEPCK gene expression was studied in HEPG2 (hepatocarcinoma) cells, seeded in 6-well plate at […] cells per well. The cells were serum starved for 20 hours before treatment with dexamethasone/cAMP (stimulator of PEPCK gene expression) in the presence or absence of insulin or GSK3 inhibitors. After 3 hours treatment the cells were harvested, lysed and RNA extracted using mini RNeasy spin column (Quiagen). The primer set COD2063/COD2064 (350 bp) was used for PEPCK gene. The one step RT-PCR was carried out using the Lightcycler-RNA Master SYBR Green 1 Kit. The qPCR analysis calculates the number of the PCR cycles required for the PCR product amplification to reach logarithmic phase. QPCR for a housekeeping gene—28S—was used for normalisation. PEPCK is a key enzyme in gluconeogenesis in the liver and it is known be negatively regulated by insulin via inhibition of GSK3. The effect of GSK3 inhibitors on PEPCK gene expression was studied in HEPG2 (hepatocarcinoma) cells treated with dexametasone/cAMP (a positive regulator of PEPCK gene expression) in the presence or absence of insulin or GSK3 inhibitors.

[4] = system: Glycogen synthase activation in rat myotubes (L6.G8.C5); assay: Glycogen synthase activation in rat myotubes (L6.G8.C5); format: cell-based; conditions: Myotube, 1.5 h, 90 minutes treatment
Experimental: Rat myotubes were differentiated from L6.G8.C5 myoblasts, which were grown in DMEM, 10% FCS and pen/strep until confluent. The media was then removed, cells washed with PBS and differentiation media containing minimal essential media eagles (alpha modified) supplemented with 2% FCS and pen/strep. The cells were cultured for 3-4 days until >90% of cells have formed multinucleated myotubes. The differentiated cells were then used for determination of glycogen synthase activation after treatment with GSK3 inhibitors.
as §1

DM Aur A (Dm AK-A) = DM Aur A (Dm AK-A) (Drosophila melanogaster, UniProt Q9VGF9); assay: Dm aurora A kinase assay (DM Aur A / Dm AK-A); format: biochemical; conditions: for Ki: in vitro kinase assay; for IC50: values without asterisk (DM aurora A)
Chain of DM Aur A (Dm AK-A) (Q9VGF9 entry or part of it): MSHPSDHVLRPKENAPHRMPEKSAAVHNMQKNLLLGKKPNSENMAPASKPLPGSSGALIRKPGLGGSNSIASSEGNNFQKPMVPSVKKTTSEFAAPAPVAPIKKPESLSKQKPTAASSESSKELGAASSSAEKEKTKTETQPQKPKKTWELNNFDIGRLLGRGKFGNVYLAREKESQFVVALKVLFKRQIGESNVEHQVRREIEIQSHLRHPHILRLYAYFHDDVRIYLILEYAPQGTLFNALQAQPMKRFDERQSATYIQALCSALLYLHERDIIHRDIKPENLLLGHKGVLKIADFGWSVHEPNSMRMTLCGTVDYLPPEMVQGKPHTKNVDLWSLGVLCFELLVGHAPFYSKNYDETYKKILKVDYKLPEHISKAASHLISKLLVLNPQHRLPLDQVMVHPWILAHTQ
Experimental: as §2

Ki (CDK2/E) [nM] | Ki (GSK3 (GSK-3β)) [nM] | Ki (DM Aur A (Dm AK-A)) [nM] | IC50 (DM Aur A (Dm AK-A)) [nM] | Molecule | EC50 [1] [nM] | EC50 [2] [nM] | % PEPCK activity ([3]; concentration 1 uM) [%] | % PEPCK activity ([3]; concentration 10 uM) [%] | EC50 [4] [nM] | % PEPCK activity ([3]; concentration 0.1 uM) [%]
197 | 3 | 681 | 861 | Cc1[nH]c(C#N)c(C)c1-c1ccnc(Nc2ccc(Cl)nc2)n1 [Compound 30] | 4300 | 2200 | 22.8 ± 12.1 | 16.2 ± 3.8 | 2300 | –
377 | 3 | 161 | 413 | CCNS(=O)(=O)c1cccc(Nc2nccc(-c3c(C)[nH]c(C#N)c3C)n2)c1 [Compound 32] | 2100 | 4100 | – | – | 5000 | –

More lines, now with the values behind:

Molecule | Ki (CDK2/E) [nM] | Ki (GSK3 (GSK-3β)) [nM] | Ki (DM Aur A (Dm AK-A)) [nM] | IC50 (DM Aur A (Dm AK-A)) [nM] | EC50 [1] [nM] | EC50 [2] [nM] | % PEPCK activity ([3]; concentration 1 uM) [%] | % PEPCK activity ([3]; concentration 10 uM) [%] | EC50 [4] [nM] | % PEPCK activity ([3]; concentration 0.1 uM) [%]
Cc1[nH]c(C#N)c(C)c1-c1ccnc(Nc2ccc(N(C)C)c([N+](=O)[O-])c2)n1 [Compound 18] | 119 | 5 | – | – | 4120 | 1500 | – | – | – | –
Cc1[nH]c([N+](=O)[O-])c(C)c1-c1ccnc(Nc2ccc(N(C)C)c([N+](=O)[O-])c2)n1 [Compound 19] | 41 | 4 | – | – | 5600 | 700 | 72.9 ± 9.06 | 45.4 ± 1.9 | 6300 | –
COc1ccc(Nc2nccc(-c3c(C)[nH]c(C#N)c3C)n2)cn1 [Compound 28] | 188 | 5 | 177 | 453 | 7900 | 6600 | 48.4 ± 7.3 | 11.7 ± 1.3 | 9000 | –
Insulin: insulin, comparator known to negatively regulate PEPCK via inhibition of GSK3 | – | – | – | – | – | – | – | – | – | 67.5 ± 9.0
